Data on one compound can be found in PubChem BioAssay AID743029 (The Scripps Research Institute Molecular Screening Center, 2013).

Holding throughout (experiment): CYP1A2, 2C9, 2D6, 3A4 inhibition – biochemical, LC-MS, ADME assay for V1a-R antagonist project, late-stage follow-up (AID 743029)
Series [1] concerns the target Cytochrome P450 1A2 (Homo sapiens) (UniProt P05177). The settings on record: human CYP isoforms, marker substrate metabolism, CYP1A2, at 10 µM, stronger effect = higher value.
Series [2] deals with Cytochrome P450 2D6 (Homo sapiens) (UniProt P10635). The conditions noted are these: human CYP isoforms, marker substrate metabolism, CYP2D6, at 10 µM, stronger effect = higher value.
Cytochrome P450 2D6 (Homo sapiens), sequence (P10635 whole entry, looked up, canonical isoform): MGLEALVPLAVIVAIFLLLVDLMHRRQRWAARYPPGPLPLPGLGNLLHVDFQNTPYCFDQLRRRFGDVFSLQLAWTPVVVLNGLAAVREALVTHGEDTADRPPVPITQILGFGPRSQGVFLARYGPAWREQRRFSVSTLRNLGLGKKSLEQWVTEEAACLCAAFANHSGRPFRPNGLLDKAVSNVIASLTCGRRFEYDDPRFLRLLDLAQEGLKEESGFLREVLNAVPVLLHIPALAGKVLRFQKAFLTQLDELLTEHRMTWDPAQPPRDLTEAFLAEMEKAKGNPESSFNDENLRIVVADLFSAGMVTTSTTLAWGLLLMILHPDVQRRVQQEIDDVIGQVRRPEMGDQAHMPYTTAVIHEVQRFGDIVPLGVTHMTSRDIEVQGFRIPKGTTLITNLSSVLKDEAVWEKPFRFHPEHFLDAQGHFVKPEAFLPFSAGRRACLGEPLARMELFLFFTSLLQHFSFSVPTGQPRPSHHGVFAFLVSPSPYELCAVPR
Series [3] concerns the target Cytochrome P450 3A4 (Homo sapiens) (UniProt P08684). The settings on record: human CYP isoforms, marker substrate metabolism, CYP3A4, at 10 µM, stronger effect = higher value.
The target of series [4] is Cytochrome P450 2C9 (Homo sapiens) (UniProt P11712). The conditions noted are these: human CYP isoforms, marker substrate metabolism, CYP2C9, at 10 µM, stronger effect = higher value.
Cytochrome P450 2C9 (Homo sapiens), sequence (P11712 whole entry, looked up, canonical isoform): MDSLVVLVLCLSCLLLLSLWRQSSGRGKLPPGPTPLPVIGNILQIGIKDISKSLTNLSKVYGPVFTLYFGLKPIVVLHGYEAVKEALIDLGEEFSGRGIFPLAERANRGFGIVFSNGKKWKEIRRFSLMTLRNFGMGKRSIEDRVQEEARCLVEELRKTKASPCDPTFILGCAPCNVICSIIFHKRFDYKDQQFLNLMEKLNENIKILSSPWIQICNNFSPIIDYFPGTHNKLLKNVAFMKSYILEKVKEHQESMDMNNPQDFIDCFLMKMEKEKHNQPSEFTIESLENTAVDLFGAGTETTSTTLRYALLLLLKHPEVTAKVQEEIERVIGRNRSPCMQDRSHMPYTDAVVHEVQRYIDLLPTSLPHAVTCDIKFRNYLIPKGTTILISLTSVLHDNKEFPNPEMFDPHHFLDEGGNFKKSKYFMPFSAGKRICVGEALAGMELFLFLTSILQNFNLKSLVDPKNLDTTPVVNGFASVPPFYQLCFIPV

Cytochrome P450 1A2 (Homo sapiens), sequence (P05177 whole entry, looked up, canonical isoform): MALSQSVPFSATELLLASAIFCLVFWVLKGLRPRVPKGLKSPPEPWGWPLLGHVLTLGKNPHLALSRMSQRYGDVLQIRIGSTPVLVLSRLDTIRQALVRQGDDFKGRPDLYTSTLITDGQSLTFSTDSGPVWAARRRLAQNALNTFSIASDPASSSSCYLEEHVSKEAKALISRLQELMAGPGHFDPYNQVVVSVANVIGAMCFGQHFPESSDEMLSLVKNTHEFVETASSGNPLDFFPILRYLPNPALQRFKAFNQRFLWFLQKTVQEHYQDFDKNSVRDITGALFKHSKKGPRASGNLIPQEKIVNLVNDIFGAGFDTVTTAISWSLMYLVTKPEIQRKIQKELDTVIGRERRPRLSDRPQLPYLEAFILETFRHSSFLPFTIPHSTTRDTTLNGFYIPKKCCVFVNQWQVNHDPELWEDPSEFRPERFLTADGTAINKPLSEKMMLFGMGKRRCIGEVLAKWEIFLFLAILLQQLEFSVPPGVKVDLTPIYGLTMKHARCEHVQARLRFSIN
Cytochrome P450 3A4 (Homo sapiens), sequence (P08684 whole entry, looked up, canonical isoform): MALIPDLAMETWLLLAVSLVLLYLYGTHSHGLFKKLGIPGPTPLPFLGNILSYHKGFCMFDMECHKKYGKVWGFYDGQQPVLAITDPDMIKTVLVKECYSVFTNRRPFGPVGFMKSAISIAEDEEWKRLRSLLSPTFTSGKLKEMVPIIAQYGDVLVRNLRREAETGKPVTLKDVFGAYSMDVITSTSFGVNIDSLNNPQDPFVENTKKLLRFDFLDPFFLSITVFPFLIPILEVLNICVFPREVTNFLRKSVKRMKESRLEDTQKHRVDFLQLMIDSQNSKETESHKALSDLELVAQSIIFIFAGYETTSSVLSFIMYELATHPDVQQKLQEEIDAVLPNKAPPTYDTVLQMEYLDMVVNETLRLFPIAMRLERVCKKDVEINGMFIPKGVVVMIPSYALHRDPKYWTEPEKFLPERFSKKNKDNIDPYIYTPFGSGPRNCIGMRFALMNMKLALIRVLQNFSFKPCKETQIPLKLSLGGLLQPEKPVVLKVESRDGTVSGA

Regarding `O=C(C1CCN(c2ccc(Cl)cn2)CC1)N(CC1CC1)c1ccc(Cl)cc1`, the inhibition in series [1] was -19%; in series [2], 2%; in series [3], -5%; in series [4] it was -6%.
